Experimental data reported in patent US6703376B2, “Use of uridine triphosphates and related compounds for the prevention and treatment of pneumonia in immobilized patients” (Inspire Pharmaceuticals, Inc., priority 1996, dated 2004).
Like-named read-outs stand apart in the source and are kept apart here.

Assays:
[1] = system: healthy adult ewes; assay: Mucociliary clearance study, 99mTc-HSA clearance by gamma camera; type: in vivo, sheep; details: 400 μmole nebulized; initial results n=2; compared to saline control
Procedure: In this study healthy adult ewes were given 99 mTc-labeled human serum albumin (99 mTc-HSA) via a nebulized aerosol. The 99 mTC-HSA (20 mCi) was administered over 5 min through a nasotracheal tube introduced under local anesthesia with 2% lidocaine. After administration of the 99 mTc-HSA, the animals were given a test compound: either UTP or U2P4. Test compounds were administered by nebulization in a volume of 4 mL over a period of 10-12 min. The test compounds were given at a dose of 400 μmole. After the administration of the test compound, the animals were extubated. Clearance of the radiolabeled particles was monitored with a gamma camera. Measurements were made at 0, 5, 10, 15, 20, 25, 30, 35, 40, 45, 50, 55, 60, […], 90, 105 and 120 min.

[2] = system: conscious adult ewes; assay: Trachael mucus velocity (TMV) study, fluoroscopy of radiopaque disks; type: in vivo, sheep; details: for maximal effect on tracheal mucus velocity: 400 μmole (4 ml of 10^−1M) nebulized, mean±standard error, n=6, 15 min after administration; for effect on tracheal mucus velocity: doses 4 to 400 μmole; for effect on tracheal mucus velocity / duration of significant effects on TMV after administration / time of maximal effect on TMV after administration: nebulized; for duration of significant effects on TMV after administration: highest dose (400 μmole); for time of maximal effect on TMV after administration: adult ewes
Text: The effects of UTP and U2P4 on trachael mucus velocity (TMV) were studied using the following procedures: The nasal passages of conscious adult ewes were anesthetized with a 2% lidocaine solution. After local anesthesia was produced, a modified endotracheal tube 7.5 mm was placed such that the cuff was just below the vocal cords (verified by fluoroscopy). Inspired air was warmed and humidified. The cuff of the endotracheal tube was inflated only during administation of the test compound to minimize possible impairment of TMV by the cuff. Test compounds were administered by nebulization in a volume of 4 mL over a period of 10-12 min. TMV was measured by fluroscopy. Ten to twenty radiopaque disks (Teflon®/bismuth trioxide; 1 mm diameter, 0.8 mm thick, weighing 1.8 mg) were introduced into the trachea through a modified suction catheter with a puff of compressed air (3-4 L/min). Velocities of the individual disks were recorded on videotape from a portable image intensifier unit. Individual disk velocities were calculated by measuring the distance traveled by each disk during a 1 min observation period. Values reported are the means of the individual disk velocities. A collar was worn by the sheep which was used as a standard to correct for magnification errors inherent in the fluoroscope.

[3] = system: anesthetized and ventilated dogs; details: cited from earlier work
[4] = system: normal volunteers; details: acute; cited from earlier work
[5] = system: cultured human epithelial cells; details: cells from normal adult humans and CF patients; cited from earlier work
[6] = system: human nasal epithelial cells; details: cited from earlier work
[7] = system: goblet cells in human airway epithelial explants; details: tissues from healthy individuals and patients with CF; cited from earlier work

Row | SMILES | clearance of radiolabeled particles (99mTc-HSA) [1] | maximal effect on tracheal mucus velocity [2] | effect on tracheal mucus velocity [2] | duration of significant effects on TMV after administration [2] | time of maximal effect on TMV after administration [2] [min] | effects on peak inspiratory airway pressure, mean pulmonary artery pressure, heart rate, cardiac output, thoracic aortic pressure, electrocardiogram, arterial blood gases ([3]; aerosol, 10^−2 M and 10^−1 M in nebulizer) | changes in mean pulmonary artery pressure, heart rate, cardiac output, mean arterial pressure ([3]; intravenous, sequential doses 0.1, 1, 3 and 5 mmoles/kg infused over 10 minutes) | improvement of mucociliary clearance (MCC) [4] [fold] | cilia beat frequency [5] | Cl- secretion ([6]; cultured nasal epithelial cells from cystic fibrosis (CF) patients) | Cl- secretion ([6]; normal human nasal epithelial cells, apical application) | mucin secretion by goblet cells [7]
1 | O=c1ccn([C@@H]2O[C@H](COP(=O)(O)OP(=O)(O)OP(=O)(O)OP(=O)(O)OC[C@H]3O[C@@H](n4ccc(=O)[nH]c4=O)[C@H](O)[C@@H]3O)[C@@H](O)[C@H]2O)c(=O)[nH]1 [U2P4, P1,P4-di(uridine-5′)tetraphosphate] | promote clearance of the radiolabeled particles | 144±9 % of baseline | significant dose-related effects | ≤ 2 h | 15 | – | – | – | – | – | – | –
2 | O=c1ccn([C@@H]2O[C@H](COP(=O)(O)OP(=O)(O)OP(=O)(O)O)[C@@H](O)[C@H]2O)c(=O)[nH]1 [UTP, uridine 5′-triphosphate] | promote clearance of the radiolabeled particles | 125±7 % of baseline | significant dose-related effects | up to 4 h | 15 | no significant effects | no significant changes | 2.5 | increase in cilia beat frequency | This response was also observed | increased Cl- secretion in a concentration-dependent manner | increase the rate and total amount of mucin secretion
